Earlier results, collected in patent publication US20080241290A1, “Sinus relief composition and method of producing the same” (priority 2007, published 2008).

Conditions: pure capsaicinoid, Scoville scale

SMILES: COc1cc(CNC(=O)CCCC/C=C/C(C)C)ccc1O [capsaicin]
- pungency (Scoville heat units): 15,000,000-16,000,000 Scoville units
